Values quoted from earlier work as cited in patent US7682636B2 (Metaproteomics, LLC, priority 2001, dated 2010).

Legend:
COX-2 over COX-1 = conditions: reported, background
[1] = tested on: osteoarthritis of the knee in outpatients; conditions: 1500 mg glucosamine sulfate per day versus 1200 mg ibuprofen

Row | Compound | COX-2 specificity (COX-2 over COX-1) | pain scores [1]
1 | CC(=O)Oc1ccccc1C(=O)O [aspirin] | 0.6 | –
2 | CC(C)Cc1ccc(C(C)C(=O)O)cc1 (stereo not drawn) [ibuprofen] | – | pain scores decreased faster during the first two weeks in the ibuprofen patients than in the glucosamine-treated patients
3 | N[C@H]1C(O)O[C@H](CO)[C@@H](O)[C@@H]1O.O=S(=O)(O)O (stereo partly drawn) [glucosamine, glucosamine sulfate] | – | difference between the two groups turned significantly in favor of glucosamine by week eight
